The record followed here is patent US20260258032A1, “TYROSINE KINASE 2 INHIBITORS AND USES THEREOF” (BIOGEN MA INC., priority 2022, published 2026).

The target in one assay is T1, JH2 domain of human Tyk2 (Homo sapiens, UniProt P29597).
T1 construct: 10×His-tagged TYK2 JH2 domain (amino acid 575-876)
In words: JH2 biochemical assay (TR-FRET probe displacement). In kind it is binding. The conditions noted are these: JH2 biochemical assay. In outline:
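10×His-tagged human TYK2 JH2 (aa 575-876, 2 nM) incubated 60 min with 2 nM fluorescent probe, 0.1 nM Tb anti-His antibody and compound (10-point 3-fold series from […] top). TR-FRET 520/495 nm ratio, falling with probe displacement, normalized and fitted to a 4-parameter logistic for IC50.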
(In general: TR-FRET usually uses a lanthanide donor and a delayed reading to cut background.)

The test system of assay [1] is Tyk2 kinase activity on STAT4. In words: pSTAT4 cell assay (MSD, NK92 cells). In kind it is cell-based. The following applies: compounds 1 hr, stimulated 15 minutes. In outline:
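Serum-starved NK92 cells were preincubated 1 hr with compound (10-point, four-fold dilutions from 10 μM), then stimulated with 30 ng/mL IL2 for 15 minutes. Lysates were read on an MSD plate assay using anti-STAT4 antibodies, and IC50 came from a 4-parameter logistic fit of normalized percent activity.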

Molecules are shown by their SMILES. pIC50: −log10 of the molar value. Structures can show the parent of a compound that is named as a salt. Where only a bound is given, the exact number is not on record here.

T1 sequence (P29597 575-876): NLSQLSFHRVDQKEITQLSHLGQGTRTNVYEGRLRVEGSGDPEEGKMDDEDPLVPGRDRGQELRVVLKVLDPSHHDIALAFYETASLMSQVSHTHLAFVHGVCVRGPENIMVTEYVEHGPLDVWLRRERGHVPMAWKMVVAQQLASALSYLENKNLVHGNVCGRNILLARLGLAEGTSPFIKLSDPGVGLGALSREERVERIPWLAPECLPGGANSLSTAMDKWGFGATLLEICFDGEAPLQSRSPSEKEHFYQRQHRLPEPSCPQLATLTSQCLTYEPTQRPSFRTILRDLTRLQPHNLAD

The pIC50 is the negative decadic logarithm of the IC50, by convention in mol/L. Regarding `CC(=O)Nc1cc2c(cn1)C1(CC1)CN2c1cc([C@H]2C[C@H](C#N)C2)nc(C(C)(F)F)n1` [Example 75, N-(1′-(6-((1r,3r)-3-cyanocyclobutyl)-2-(1,1-difluoroethyl)pyrimidin-4-yl)-1′,2′-dihydrospiro[cyclopropane-1,3′-pyrrolo[3,2-c]pyridin]-6′-yl)acetamide or N-(1′-(6-((1s,3s)-3-cyanocyclobutyl)-2-(1,1-difluoroethyl)pyrimidin-4-yl)-1′,2′-dihydrospiro[cyclopropane-1,3′-pyrrolo[3,2-c]pyridin]-6′-yl)acetamide], the negative logarithm of the IC50 (pIC50) at JH2 domain of human Tyk2 is ≥ 8.00; in assay [1], 6.00 to 7.00.
For `CC(=O)Nc1cc2c(cn1)C1(CC1)CN2c1nc(C(C)(F)F)cs1` [Example 79, N-(1′-(4-(1,1-difluoroethyl)thiazol-2-yl)-1′,2′-dihydrospiro[cyclopropane-1,3′-pyrrolo[3,2-c]pyridin]-6′-yl)acetamide trifluoroacetate], the results for the pIC50 (at JH2 domain of human Tyk2; in assay [1]) were 7.00 to 8.00 and ≤ 6.00, respectively.
Turning to `CC(=O)Nc1cc2c(cn1)C1(CC1)CN2c1nc(C)c(C)s1` [Example 80, N-(1′-(4,5-dimethylthiazol-2-yl)-1′,2′-dihydrospiro[cyclopropane-1,3′-pyrrolo[3,2-c]pyridin]-6′-yl)acetamide], the figures for the negative logarithm of the IC50 (pIC50) (at JH2 domain of human Tyk2; in assay [1]) were 7.00 to 8.00 and ≤ 6.00, respectively.
Turning to `CC(=O)Nc1cc2c(cn1)C1(CC1)CN2c1nc(C2CCCOC2)cs1` (centres unmarked) [Example 81, N-(1′-(4-(tetrahydro-2H-pyran-3-yl)thiazol-2-yl)-1′,2′-dihydrospiro[cyclopropane-1,3′-pyrrolo[3,2-c]pyridin]-6′-yl)acetamide trifluoroacetate], the pIC50 was 7.00 to 8.00 on JH2 domain of human Tyk2 and ≤ 6.00 in assay [1].
As to `CC(=O)Nc1cc2c(cn1)C1(CC1)CN2c1nc(C2CCOC2)c(C)s1` (centres unmarked) [Example 82, N-(1′-(5-methyl-4-(tetrahydrofuran-3-yl)thiazol-2-yl)-1′,2′-dihydrospiro[cyclopropane-1,3′-pyrrolo[3,2-c]pyridin]-6′-yl)acetamide trifluoroacetate], the pIC50 at JH2 domain of human Tyk2 is ≥ 8.00; in assay [1], 6.00 to 7.00.
For the molecule `COCCOc1cc(N2CC3(CC3)c3cnc(NC(C)=O)cc32)nc(C(C)(F)F)c1` [Example 86, N-(1′-(6-(1,1-difluoroethyl)-4-(2-methoxyethoxy)pyridin-2-yl)-1′,2′-dihydrospiro[cyclopropane-1,3′-pyrrolo[3,2-c]pyridin]-6′-yl)acetamide], the negative-log IC50 (pIC50) (at JH2 domain of human Tyk2; in assay [1]) was ≥ 8.00 throughout.
Consider `CCC(=O)Nc1cc2c(cn1)C1(CC1)CN2c1ccnc(C(C)(F)F)n1` [Example 89, N-(1′-(2-(1,1-difluoroethyl)pyrimidin-4-yl)-1′,2′-dihydrospiro[cyclopropane-1,3′-pyrrolo[3,2-c]pyridin]-6′-yl)propionamide], for which the pIC50 on JH2 domain of human Tyk2 is ≥ 8.00; in assay [1], 6.00 to 7.00.
The corresponding values for `COCCC(=O)Nc1cc2c(cn1)C1(CC1)CN2c1ccnc(C(C)(F)F)n1` [Example 91, N-(1′-(2-(1,1-difluoroethyl)pyrimidin-4-yl)-1′,2′-dihydrospiro[cyclopropane-1,3′-pyrrolo[3,2-c]pyridin]-6′-yl)-3-methoxypropanamide] are 7.00 to 8.00 and ≤ 6.00.
Regarding `CC(=O)Nc1cc2c(cn1)C1(CC1)CN2c1cccc(S(C)(=O)=O)n1` [Example 93, N-(1′-(6-(methylsulfonyl)pyridin-2-yl)-1′,2′-dihydrospiro[cyclopropane-1,3′-pyrrolo[3,2-c]pyridin]-6′-yl)acetamide], the pIC50 (on JH2 domain of human Tyk2; in assay [1]) was ≥ 8.00 throughout.
On to `CC(=O)Nc1cc2c(cn1)C1(CC1)CN2c1ccccn1` [Example 94, N-(1′-(pyridin-2-yl)-1′,2′-dihydrospiro[cyclopropane-1,3′-pyrrolo[3,2-c]pyridin]-6′-yl)acetamide], for which the pIC50 at JH2 domain of human Tyk2 is 6.00 to 7.00; in assay [1], ≤ 6.00.
Regarding `CC(=O)Nc1cc2c(cn1)C1(CC1)CN2c1cc(C)cc(C2(O)CCOC2)n1` (centres unmarked) [Example 95, N-(1′-(6-(3-hydroxytetrahydrofuran-3-yl)-4-methylpyridin-2-yl)-1′,2′-dihydrospiro[cyclopropane-1,3′-pyrrolo[3,2-c]pyridin]-6′-yl)acetamide], the pIC50 on JH2 domain of human Tyk2 is ≥ 8.00; in assay [1], 6.00 to 7.00.
Take `CC(=O)Nc1cc2c(cn1)C1(CC1)CN2c1cc(C)nc(C(C)S(C)(=O)=O)n1` (centres unmarked) [Example 97, N-(1′-(6-methyl-2-(1-(methylsulfonyl)ethyl)pyrimidin-4-yl)-1′,2′-dihydrospiro[cyclopropane-1,3′-pyrrolo[3,2-c]pyridin]-6′-yl)acetamide]: the figures for the pIC50 (on JH2 domain of human Tyk2; in assay [1]) were ≥ 8.00 and 6.00 to 7.00, respectively.
Turning to `CC(=O)Nc1cc2c(cn1)C1(CC1)CN2c1cc(C)nc(C2CCS(=O)(=O)C2)n1` (centres unmarked) [Example 98, N-(1′-(2-(1,1-dioxidotetrahydrothiophen-3-yl)-6-methylpyrimidin-4-yl)-1′,2′-dihydrospiro[cyclopropane-1,3′-pyrrolo[3,2-c]pyridin]-6′-yl)acetamide], the results for the pIC50 (at JH2 domain of human Tyk2; in assay [1]) were 7.00 to 8.00 and ≤ 6.00, respectively.
With `COCCOc1ccnc(N2CC3(CC3)c3cnc(NC(C)=O)cc32)n1` [Example 99, N-(1′-(4-(2-methoxyethoxy)pyrimidin-2-yl)-1′,2′-dihydrospiro[cyclopropane-1,3′-pyrrolo[3,2-c]pyridin]-6′-yl)acetamide], the pIC50 at JH2 domain of human Tyk2 is 7.00 to 8.00; in assay [1], ≤ 6.00.
Consider `CC(=O)Nc1cc2c(cn1)C1(CC1)CN2c1cc(C)nc(-n2cccn2)n1` [Example 100, N-(1′-(6-methyl-2-(1H-pyrazol-1-yl)pyrimidin-4-yl)-1′,2′-dihydrospiro[cyclopropane-1,3′-pyrrolo[3,2-c]pyridin]-6′-yl)acetamide], for which the figures for the pIC50 (on JH2 domain of human Tyk2; in assay [1]) were 7.00 to 8.00 and ≤ 6.00, respectively.
For `CC(=O)Nc1cc2c(cn1)C1(CC1)CN2c1cncc(C(C)(F)F)n1` [Example 101, N-(1′-(6-(1,1-difluoroethyl)pyrazin-2-yl)-1′,2′-dihydrospiro[cyclopropane-1,3′-pyrrolo[3,2-c]pyridin]-6′-yl)acetamide], in that order: ≥ 8.00 and 6.00 to 7.00.
On to `CC(=O)Nc1cc2c(cn1)C1(CC1)CN2c1cc(C)nc(C2CCOC2)n1` (centres unmarked) [Example 103, N-(1′-(6-methyl-2-(tetrahydrofuran-3-yl)pyrimidin-4-yl)-1′,2′-dihydrospiro[cyclopropane-1,3′-pyrrolo[3,2-c]pyridin]-6′-yl)acetamide], for which the pIC50 at JH2 domain of human Tyk2 was ≥ 8.00; in assay [1], 6.00 to 7.00.
As to `COC1(c2nc(C)cc(N3CC4(CC4)c4cnc(NC(C)=O)cc43)n2)CCC1` [Example 104, N-(1′-(2-(1-methoxycyclobutyl)-6-methylpyrimidin-4-yl)-1′,2′-dihydrospiro[cyclopropane-1,3′-pyrrolo[3,2-c]pyridin]-6′-yl)acetamide], the pIC50 is ≥ 8.00 on JH2 domain of human Tyk2 and 6.00 to 7.00 in assay [1].
Consider `CC(=O)Nc1cc2c(cn1)C1(CC1)CN2c1cc(C)nc(N2CCCCC2)n1` [Example 113, N-(1′-(6-methyl-2-(piperidin-1-yl)pyrimidin-4-yl)-1′,2′-dihydrospiro[cyclopropane-1,3′-pyrrolo[3,2-c]pyridin]-6′-yl)acetamide], for which the pIC50 is 7.00 to 8.00 on JH2 domain of human Tyk2 and ≤ 6.00 in assay [1].
In the case of `CC(=O)Nc1cc2c(cn1)C1(CC1)CN2c1cc(C)nc(N2CCCC2)n1` [Example 114, N-(1′-(6-methyl-2-(pyrrolidin-1-yl)pyrimidin-4-yl)-1′,2′-dihydrospiro[cyclopropane-1,3′-pyrrolo[3,2-c]pyridin]-6′-yl)acetamide], the values for the pIC50 (at JH2 domain of human Tyk2; in assay [1]) were 7.00 to 8.00 and 6.00 to 7.00, respectively.
As to `CC(=O)Nc1cc2c(cn1)C1(CC1)CN2c1cc(C)nc(N(C)C)n1` [Example 116, N-(1′-(2-(dimethylamino)-6-methylpyrimidin-4-yl)-1′,2′-dihydrospiro[cyclopropane-1,3′-pyrrolo[3,2-c]pyridin]-6′-yl)acetamide], the pIC50 at JH2 domain of human Tyk2 was 7.00 to 8.00; in assay [1], ≤ 6.00.
Turning to `CC(=O)Nc1cc2c(cn1)C1(CC1)CN2c1cc(C)nc(C2CCCN(S(C)(=O)=O)C2)n1` (centres unmarked) [Example 119, N-(1′-(6-methyl-2-(1-(methylsulfonyl)piperidin-3-yl)pyrimidin-4-yl)-1′,2′-dihydrospiro[cyclopropane-1,3′-pyrrolo[3,2-c]pyridin]-6′-yl)acetamide], the negative logarithm of the IC50 (pIC50) on JH2 domain of human Tyk2 was 7.00 to 8.00; in assay [1], 6.00 to 7.00.
For `CC(=O)Nc1cc2c(cn1)C1(CC1)CN2c1cc(C)nc(C2CCN(C(C)=O)CC2)n1` [Example 120, N-(1′-(2-(1-acetylpiperidin-4-yl)-6-methylpyrimidin-4-yl)-1′,2′-dihydrospiro[cyclopropane-1,3′-pyrrolo[3,2-c]pyridin]-6′-yl)acetamide], in that order: 6.00 to 7.00 and ≤ 6.00.
For the molecule `CC(=O)Nc1cc2c(cn1)C1(CC1)CN2c1cc(C)nc(C2CCN(S(C)(=O)=O)CC2)n1` [Example 122, N-(1′-(6-methyl-2-(1-(methylsulfonyl)piperidin-4-yl)pyrimidin-4-yl)-1′,2′-dihydrospiro[cyclopropane-1,3′-pyrrolo[3,2-c]pyridin]-6′-yl)acetamide], the pIC50 at JH2 domain of human Tyk2 is 6.00 to 7.00; in assay [1], ≤ 6.00.
Turning to `CC(=O)Nc1cc2c(cn1)C1(CC1)CN2c1cc(C)nc(C2CC2C)n1` (centres unmarked) [Example 123, N-(1′-(6-methyl-2-(2-methylcyclopropyl)pyrimidin-4-yl)-1′,2′-dihydrospiro[cyclopropane-1,3′-pyrrolo[3,2-c]pyridin]-6′-yl)acetamide], the pIC50 at JH2 domain of human Tyk2 was ≥ 8.00; in assay [1], 6.00 to 7.00.
